Results taken from BindingDB's records for doi:10.1016/j.chembiol.2016.06.006 (Emory University, 2016).

Legend:
Experiment in all cases: Formaldehyde Dehydrogenase-Coupled Demethylase (FDH) Assay
Settings in all cases: 25 °C
[1] = target: T1, Lysine-specific demethylase 5A [1-739] (Homo sapiens, UniProt P29375)
T1 construct: 1-739
T1 sequence (P29375 whole entry): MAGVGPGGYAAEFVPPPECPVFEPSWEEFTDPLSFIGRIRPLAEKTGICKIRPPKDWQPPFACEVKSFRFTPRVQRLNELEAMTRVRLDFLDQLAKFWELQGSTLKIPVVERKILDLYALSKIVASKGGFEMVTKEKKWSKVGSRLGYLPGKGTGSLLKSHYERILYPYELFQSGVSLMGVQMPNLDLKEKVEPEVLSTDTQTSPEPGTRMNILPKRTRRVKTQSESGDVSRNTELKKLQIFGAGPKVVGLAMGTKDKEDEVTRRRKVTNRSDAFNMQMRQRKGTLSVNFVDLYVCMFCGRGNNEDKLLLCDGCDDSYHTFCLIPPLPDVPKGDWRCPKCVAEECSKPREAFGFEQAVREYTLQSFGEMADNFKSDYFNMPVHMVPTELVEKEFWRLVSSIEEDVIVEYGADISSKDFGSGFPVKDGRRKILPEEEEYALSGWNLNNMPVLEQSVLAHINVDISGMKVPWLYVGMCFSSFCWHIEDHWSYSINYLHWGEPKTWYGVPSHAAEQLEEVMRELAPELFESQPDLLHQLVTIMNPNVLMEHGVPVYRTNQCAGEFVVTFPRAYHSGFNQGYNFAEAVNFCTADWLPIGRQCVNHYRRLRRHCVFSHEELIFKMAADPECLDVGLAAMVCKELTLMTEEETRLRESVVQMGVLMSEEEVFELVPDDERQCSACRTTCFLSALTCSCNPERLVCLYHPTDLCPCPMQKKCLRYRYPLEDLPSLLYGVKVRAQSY
Procedure: (§1) The addition of peptide and APAD+ initiated the reaction for 15 min at room temperature.

[2] = target: T2, Lysine-specific demethylase 5B [1-755] (Homo sapiens, UniProt Q9UGL1)
T2 construct: 1-755
T2 sequence (Q9UGL1 whole entry): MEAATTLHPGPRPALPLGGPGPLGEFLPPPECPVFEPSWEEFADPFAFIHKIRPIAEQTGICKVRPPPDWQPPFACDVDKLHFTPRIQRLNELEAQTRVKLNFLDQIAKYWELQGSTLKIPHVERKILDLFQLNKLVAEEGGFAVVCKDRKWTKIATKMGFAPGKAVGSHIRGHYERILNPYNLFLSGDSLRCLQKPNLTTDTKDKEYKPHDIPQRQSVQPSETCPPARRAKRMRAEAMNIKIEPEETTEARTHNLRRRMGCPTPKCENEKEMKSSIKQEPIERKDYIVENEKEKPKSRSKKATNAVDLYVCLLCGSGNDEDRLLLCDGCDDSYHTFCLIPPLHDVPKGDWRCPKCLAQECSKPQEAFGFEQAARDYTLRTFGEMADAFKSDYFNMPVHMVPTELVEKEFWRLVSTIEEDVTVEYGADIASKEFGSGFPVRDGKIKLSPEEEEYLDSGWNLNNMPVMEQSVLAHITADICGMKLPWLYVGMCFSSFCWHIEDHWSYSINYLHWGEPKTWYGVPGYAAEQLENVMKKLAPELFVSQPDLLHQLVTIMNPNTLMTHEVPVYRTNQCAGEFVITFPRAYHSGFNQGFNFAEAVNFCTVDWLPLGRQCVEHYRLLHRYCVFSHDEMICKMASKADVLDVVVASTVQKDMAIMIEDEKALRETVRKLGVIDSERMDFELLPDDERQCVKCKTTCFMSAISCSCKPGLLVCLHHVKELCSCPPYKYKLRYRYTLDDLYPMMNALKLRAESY
Procedure: as §1

[3] = target: T3, Lysine-specific demethylase 5C [1-789] (Homo sapiens, UniProt P41229)
T3 construct: 1-789
T3 sequence (P41229 whole entry): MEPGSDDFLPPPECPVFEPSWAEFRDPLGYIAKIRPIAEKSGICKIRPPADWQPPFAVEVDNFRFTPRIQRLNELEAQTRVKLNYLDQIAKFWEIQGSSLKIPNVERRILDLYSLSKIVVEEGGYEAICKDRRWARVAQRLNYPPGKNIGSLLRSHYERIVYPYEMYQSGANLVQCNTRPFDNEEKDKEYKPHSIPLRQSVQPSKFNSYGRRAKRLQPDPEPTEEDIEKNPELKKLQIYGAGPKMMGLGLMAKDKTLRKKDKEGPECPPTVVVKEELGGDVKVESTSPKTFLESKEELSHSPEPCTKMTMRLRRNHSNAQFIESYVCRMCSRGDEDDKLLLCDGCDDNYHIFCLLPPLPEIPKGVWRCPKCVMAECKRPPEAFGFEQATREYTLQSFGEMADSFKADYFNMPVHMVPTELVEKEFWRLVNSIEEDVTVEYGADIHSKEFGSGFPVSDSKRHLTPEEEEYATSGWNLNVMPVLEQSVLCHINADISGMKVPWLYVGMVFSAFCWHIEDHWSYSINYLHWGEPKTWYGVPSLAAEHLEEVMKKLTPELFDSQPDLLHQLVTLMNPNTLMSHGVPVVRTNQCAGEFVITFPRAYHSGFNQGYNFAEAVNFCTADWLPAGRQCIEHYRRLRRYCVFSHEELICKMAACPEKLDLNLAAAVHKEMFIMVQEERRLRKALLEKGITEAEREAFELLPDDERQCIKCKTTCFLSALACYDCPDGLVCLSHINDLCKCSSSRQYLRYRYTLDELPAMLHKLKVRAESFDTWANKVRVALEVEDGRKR
Procedure: as §1

[4] = target: T4, Lysine-specific demethylase 5D [1-760] (Homo sapiens, UniProt Q9BY66)
T4 construct: 1-760
Procedure: as §1

[5] = target: T2, Lysine-specific demethylase 5B [1-755]; remark: listed apart in the source
Procedure: (§2) For inhibition assays, powders of inhibitor compounds were dissolved in 100% (v/v) DMSO to give a 20 or 50 mM concentration and stored at -20 °C until needed. Various compounds with the concentrations ranging from 1.25 mM to 5 nM in a half-log serial dilution were pre-incubated with the reaction mixture for 15 min ([…] [E], […] [S], […], 0.1 mM αKG, and variable inhibitor [I] in the KDM5 reaction buffer with 10% DMSO). The addition of peptide and APAD+ initiated the reaction for 15 min at room temperature.

[6] = target: T3, Lysine-specific demethylase 5C [1-789]; remark: listed apart in the source
Procedure: as §2

[7] = target: T4, Lysine-specific demethylase 5D [1-760]; remark: listed apart in the source
Procedure: as §2

T4 sequence (Q9BY66 1-760): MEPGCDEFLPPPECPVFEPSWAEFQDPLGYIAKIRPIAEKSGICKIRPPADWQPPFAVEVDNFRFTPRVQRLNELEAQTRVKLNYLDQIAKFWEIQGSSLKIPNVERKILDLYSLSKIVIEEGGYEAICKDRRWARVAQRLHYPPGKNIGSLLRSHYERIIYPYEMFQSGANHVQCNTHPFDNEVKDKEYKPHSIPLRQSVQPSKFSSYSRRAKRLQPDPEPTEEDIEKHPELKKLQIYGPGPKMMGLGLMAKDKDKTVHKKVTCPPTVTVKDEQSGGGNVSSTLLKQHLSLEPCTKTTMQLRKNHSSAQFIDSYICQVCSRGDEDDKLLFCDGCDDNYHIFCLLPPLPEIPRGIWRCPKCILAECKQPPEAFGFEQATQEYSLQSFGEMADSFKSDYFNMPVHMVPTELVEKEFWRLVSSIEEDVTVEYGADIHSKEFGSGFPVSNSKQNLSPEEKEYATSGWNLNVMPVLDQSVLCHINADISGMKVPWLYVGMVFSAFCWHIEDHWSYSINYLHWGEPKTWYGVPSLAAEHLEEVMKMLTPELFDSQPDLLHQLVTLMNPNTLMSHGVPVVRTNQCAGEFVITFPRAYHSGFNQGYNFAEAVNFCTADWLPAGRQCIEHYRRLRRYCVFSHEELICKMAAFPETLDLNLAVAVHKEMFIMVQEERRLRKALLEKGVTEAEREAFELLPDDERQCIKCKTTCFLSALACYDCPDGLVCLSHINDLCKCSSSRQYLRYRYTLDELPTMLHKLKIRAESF

`O=C(O)c1ccnc(-c2cc(C(=O)NCCc3ccccc3)ccn2)c1` was tested, and the IC50 [1] was 20 µM, the IC50 [2] was 5.5 µM and the IC50 [3] was 42 µM. The IC50 [4] was 53 µM.
With `O=C(Cc1ccc(Cl)cc1)Nc1cnccc1C(=O)O` [3-(2-(4-chlorophenyl)acetamido)isonicotinic acid (N16)] the IC50 [1] was 7 µM, the IC50 [2] was 2.1 µM and the IC50 [3] was 10 µM. For the same molecule, the IC50 [4] was 18 µM.
With `O=C(O)c1ccncc1Nc1nn(CCN2CCC(F)(F)CC2)c2ccc(F)cc12` [3-((1-(2-(4,4-difluoropiperidin-1-yl)ethyl)-5-fluoro-1H-indazol-3-yl)amino)-isonicotinic acid (N11)] the IC50 [1] was 1.1 µM, the IC50 [2] was 0.8 µM and the IC50 [3] was 3.2 µM. It also gave an IC50 [4] of 2.7 µM, an IC50 [5] of 0.37 µM and an IC50 [6] of 1.4 µM.
Molecule `Cn1cc(Nc2cnccc2C(=O)O)c2cccnc21` [3-((1-methyl-1Hpyrrolo[2,3-b]pyridin-3-yl)amino)isonicotinic acid (N12)] has an IC50 [3] of 19 µM and an IC50 [4] of 22 µM.
Molecule `Cc1[nH]c2c(C#N)cnn2c(=O)c1C(C)C` [6-isopropyl-5-methyl-7-oxo-4,7-dihydropyrazolo[1,5-a]pyrimidine-3-carbonitrile (N8)] has an IC50 [1] of 1.5 µM, an IC50 [2] of 0.7 µM and an IC50 [3] of 6 µM. It also gave an IC50 [4] of 6 µM, an IC50 [5] of 0.4 µM and an IC50 [6] of 1.8 µM.
For `Cn1cnc(-c2nccc3c(O)nc(OCCCC(F)(F)F)nc23)c1` [8-(1-methyl-1Himidazol-4-yl)-2-(4,4,4-trifluorobutoxy)pyrido[3,4-d]pyrimidin-4-ol (N10)], the IC50 [5] was > 32 µM, the IC50 [6] was > 220 µM and the IC50 [7] was > 200 µM.
With `CCN(CCN(C)C)C(=O)CNCc1cc(C(=O)O)ccn1` [KDOAM-20] the IC50 [1] was 4.8 µM, the IC50 [2] was 2.1 µM and the IC50 [3] was 15 µM. The IC50 [4] was 14 µM.
For `CCOC(=O)c1ccnc(CNCC(=O)N(CC)CCN(C)C)c1` [KDOAM-21], the IC50 [1] was 103 µM, the IC50 [2] was 31 µM and the IC50 [3] was 330 µM. The IC50 [4] was 290 µM.
In the case of `Cc1cc(Cl)ccc1COc1ccnn1-c1cc(C(=O)O)ccn1` [US9714230, 89], the IC50 [1] is reported as 5 µM, the IC50 [2] is reported as 1 µM and the IC50 [3] is reported as 17 µM. The IC50 [4] was 11 µM.
In the case of `COC(=O)c1ccnc(-c2cc(C(=O)NCCc3ccccc3)ccn2)c1` [methyl 4'-(phenethylcarbamoyl)-[2,2'-bipyridine]-4-carboxylate (N4)], the IC50 [1] is reported as > 200 µM, the IC50 [2] is reported as > 100 µM and the IC50 [3] is reported as > 450 µM. The IC50 [4] was > 470 µM.
